Here are results for 2 substances from article PMC9220408, “Enhanced Antibacterial Activity of Dermaseptin through Its Immobilization on Alginate Nanoparticles—Effects of Menthol and Lactic Acid on Its Potentialization” (Antibiotics, 2022).

Data set [1] has as its system E. coli 184. The class given is cell-based, Escherichia coli. Particulars: broth microdilution, Mueller-Hinton broth, 24 h, 37 °C, OD 600 nm, triplicate; MIC as lowest concentration of DRS-B2 peptide; colistin-resistant strain (mcr-1). As to the method:
(§1) The Escherichia coli (E. coli) strains used in this study included E. coli ATCC 8739 and E. coli 184, which is resistant to colistin. […] E. coli strains were grown at 37 °C in Brain Heart Infusion (BHI) medium (Sigma-Aldrich, St. Louis, MA, USA).
(§2) The minimum inhibitory concentration (MIC) of the aforementioned formulations was determined in triplicate in 96-well microtiter plates using the broth microdilution method. Fresh colonies of E. coli were sub-cultured in Mueller–Hinton broth (Sigma-Aldrich) and were grown at 37 °C overnight on a rotary shaker at 160 rpm. […] The plates were incubated for 24 h at 37 °C, and inhibition of growth was measured at 600 nm with a spectrophotometer ELx808^tm (BioTek, Winoosky, VT, USA).
Background: In broth dilution the organism is exposed to a series of concentrations in liquid medium.

The subject of data set [2] is E. coli ATCC 8739. The class given is cell-based, Escherichia coli. The note with it: broth microdilution, Mueller-Hinton broth, 24 h, 37 °C, OD 600 nm, triplicate; MIC as lowest concentration of DRS-B2 peptide; colistin-sensitive strain. On the procedure: as §1, §2
The test system of data set [3] is E. coli 184. As to the method: as §2
The ability of these new formulations to resist the conditions of the gastrointestinal tract (GIT) environment was determined as previously described. […]
To this end, we used pepsin, a digestive enzyme from the stomach, and active at pH 3, trypsin and chymotrypsin, which are synthesized in the pancreas and secreted in the small intestine, active between pH 6 and pH 8.

The subject of data set [4] is CHO (Chinese Hamster Ovary) cells. Particulars: DRS-B2 at 39.7 µg/mL (10 µM); cited from earlier work.
Data set [5] relates to IPEC-1 cells. In words: Cytotoxicity assay (CCK8). The note with it: 24 h, 37 °C, CCK8, % of non-treated cells. As to the method:
The cytotoxicity assay was performed as previously reported. Briefly, human colon carcinoma (HT29) and porcine intestinal (IPEC-1) cells (Sigma-Aldrich) were cultivated in Dulbecco’s Modified Eagle Medium (DMEM, Gibco, Thermo Fisher, Waltham, MA, USA) in 96-well-tissue culture plates for 48–72 h at 37 °C, in atmosphere containing 5% CO2, until the formation of a continuous confluent cell culture on the bottom of each well. […] The required concentrations were prepared in DMEM without antibiotics and serum and were added to the HT29/IPEC-1 cells in the wells, after washing with the same medium. The treated cells were then incubated for 24 h at 37 °C, in atmosphere containing 5% CO2. To assess the cell viability of the treated HT29/IPEC-1 cells, CCK8 assay (Dojindo Molecular Technologies, Tokyo, Japan) was realized according to the supplier recommendations. An amount of 150 µL of DMEM containing 7.5 µL of CCK-8 reagents were added to each well, and cells were incubated for 2 h. Plates were read at 450 nm in a microplate reader spectrophotometer (Xenius, Safas, Monaco).

A short description of data set [6]: Size (DLS) and zeta potential. The class given is physicochemical. The note with it: pH 6.3; Alg NPs 500 µg/mL, DRS-B2 40 µg/mL. On the procedure:
The concentration of Alg NPs has been set to 500 µg/mL in order to allow a good dispersion and avoid any aggregation or sedimentation that could interfere with the adsorption. […]

Data set [7] relates to MCF-7 (breast cancer) cells. The note with it: MCF-7, inhibition of thymidine incorporation; cited from earlier work. The text has this: Of note, though many peptides endowed with biological functions, such as inhibitory activities, could be hemolytic, their combination with nanoparticles frequently allows them to discard this adverse trait. Charpentier et al. focused on the cytotoxicity of dermaseptin B3 and B4 on mammalian cells. These authors evaluated dermaseptin B3 and B4 abilities to inhibit thymidine incorporation into transformed human MCF-7 (breast cancer) cells. The results obtained unveiled 50% cytotoxicity when DRS-B3 was used at 27.8 µg/mL (10 µM). However, Galanth et al. reported that wh ...
A general note: Dividing cells build labelled thymidine or BrdU into new DNA.

Ends that are not written are not given here.

As for “GLWSKIKEVGKEAAKAAAKAAGKAALGAVSEAV-NH2 [DRS-B2, Dermaseptin B2]”, the “MIC E. coli 184” value in data set [1] was found to be 7.5 µg/mL. Besides, the “MIC E. coli ATCC8739” value in data set [2] is recorded as 3.75 µg/mL. For the same substance, in data set [3] (30 min at pH 3 with pepsin (15 U/mL) and then 2 h at pH 6, 20 mM PBS, 39 °C at 140 rpm), the “MICs of DRS-B2, Treatment with Pepsin” value is given as at least 10 µg/mL. Also, in data set [3] (30 min at pH 3 with pepsin (15 U/mL) and then 2 h at pH 6 with trypsin (40 U/µL) + chymotrypsin (5 U/mL), 20 mM PBS, 39 °C at 140 rpm), the “MICs of DRS-B2, Treatment with Digestive Enzymes” value is on record as at least 10 µg/mL. Besides, the “MICs of DRS-B2, Treatment with pH Variation Only” value in data set [3] (incubation 30 min at pH 3 and then 2 h at pH 6, 20 mM PBS, 39 °C at 140 rpm, no enzymes) amounted to 10 µg/mL. Besides, the “MICs of DRS-B2, Without Treatment” value in data set [3] (no physical or enzymatic treatment) came to 7.5 µg/mL. Also, the “toxic effect on CHO cells (in words)” value in data set [4] is “not any toxic effect”. Moreover, the entries for the “percentage of survival of IPEC-1 cell line” value in data set [5] (DRS-B2 at 30 µg/mL (alone or adsorbed on Alg NPs)) and in data set [5] (DRS-B2 at 125 µg/mL (alone or adsorbed on Alg NPs)) were 87% and 68%, respectively. In addition, in data set [6], the “Zeta Potential (ζ)” value is reported as “+23 mV”.
As to dermaseptin B3 [DRS-B3], the “concentration giving 50% cytotoxicity” value in data set [7] was 27800 ng/mL.
